Reference: patent US6339042B1, “Herbicidal N-cyclohexadienyl heteroaryloxyacetamides” (American Cyanamid Co., priority 1999, dated 2002)

Experiments:
Conditions in all cases: three weeks after treatment
[1] = test system: Amaranthus tuberculatus; experiment: Pre-emergence herbicidal evaluation, AMATA; format: in vivo
From the text: (§1) The treated pots are then placed on greenhouse benches, watered and cared for in accordance with conventional greenhouse procedures.

[2] = test system: Alopecurus myosuroides; experiment: Pre-emergence herbicidal evaluation, ALOMY; format: in vivo
From the text: as §1

[3] = test system: Apera spica venti; experiment: Pre-emergence herbicidal evaluation, APESV; format: in vivo
From the text: as §1

[4] = test system: Echinochloa crus-galli; experiment: Pre-emergence herbicidal evaluation, ECHCG; format: in vivo
From the text: as §1

[5] = test system: Setaria viridis; experiment: Pre-emergence herbicidal evaluation, SETVI; format: in vivo
From the text: as §1

[6] = test system: Lolium perenne; experiment: Pre-emergence herbicidal evaluation, LOLPE; format: in vivo
From the text: as §1

[7] = test system: Triticum aestivum; experiment: Pre-emergence herbicidal evaluation, TRZAW; format: in vivo
From the text: as §1

[8] = test system: Hordeum vulgare; experiment: Pre-emergence herbicidal evaluation, HORVW; format: in vivo
From the text: as §1

[9] = test system: Zea mays; experiment: Pre-emergence herbicidal evaluation, ZEAMX; format: in vivo
From the text: as §1

[10] = test system: Glycine max; experiment: Pre-emergence herbicidal evaluation, GLXMA; format: in vivo
From the text: as §1

[11] = test system: Oryza sativum; experiment: Pre-emergence herbicidal evaluation, ORYSA; format: in vivo
From the text: as §1

[12] = test system: Amaranthus tuberculatus; experiment: Post-emergence herbicidal evaluation, AMATA; format: in vivo
[13] = test system: Galium aparine; experiment: Post-emergence herbicidal evaluation, GALAP
[14] = test system: Alopecurus myosuroides; experiment: Post-emergence herbicidal evaluation, ALOMY
[15] = test system: Apera spica venti; experiment: Post-emergence herbicidal evaluation, APESV
[16] = test system: Echinochloa crus-galli; experiment: Post-emergence herbicidal evaluation, ECHCG
[17] = test system: Setaria viridis; experiment: Post-emergence herbicidal evaluation, SETVI
[18] = test system: Lolium perenne; experiment: Post-emergence herbicidal evaluation, LOLPE
[19] = test system: Triticum aestivum; experiment: Post-emergence herbicidal evaluation, TRZAW
[20] = test system: Hordeum vulgare; experiment: Post-emergence herbicidal evaluation, HORVW
Method: (§2) Each pot is examined three weeks after treatment and phytotoxicity is assessed according to the rating system set forth below.
(§3) These acetone solutions are diluted with water and the resulting formulations applied at dosage levels equivalent of about 0.4 to 0.1 kg per hectare of test compound per pot. After spraying the plants are placed on greenhouse benches and are cared for in the usual manner, commensurate with conventional greenhouse practices.

[21] = test system: Zea mays; experiment: Post-emergence herbicidal evaluation, ZEAMX
Method: as §2, §3

[22] = test system: Glycine max; experiment: Post-emergence herbicidal evaluation, GLXMA
[23] = test system: Oryza sativum; experiment: Post-emergence herbicidal evaluation, ORYSA

CCc1nnc(OCC(=O)N(C)C2=CC(C)(C)CC(C)=C2)s1 [Example 5]
phytotoxicity rating AMATA ([1]; 0.100 kg/ha): 0 (0 - No effect)
phytotoxicity rating AMATA ([1]; 0.200 kg/ha): 0 (0 - No effect)
phytotoxicity rating AMATA ([1]; 0.400 kg/ha): 1 (1 - Trace effect)
phytotoxicity rating AMATA ([1]; 0.800 kg/ha): 3 (3 - Moderate effect)
phytotoxicity rating ALOMY ([2]; 0.100 kg/ha): 3 (3 - Moderate effect)
phytotoxicity rating ALOMY ([2]; 0.200 kg/ha): 8 (8 - Approaching complete kill)
phytotoxicity rating ALOMY ([2]; 0.400 kg/ha): 9 (9 - Complete kill)
phytotoxicity rating ALOMY ([2]; 0.800 kg/ha): 9 (9 - Complete kill)
phytotoxicity rating APESV ([3]; 0.400 kg/ha): 3 (3 - Moderate effect)
phytotoxicity rating APESV ([3]; 0.800 kg/ha): 7 (7 - Good herbicidal effect)
phytotoxicity rating ECHCG ([4]; 0.100 kg/ha): 2 (2 - Slight effect)
phytotoxicity rating ECHCG ([4]; 0.200 kg/ha): 7 (7 - Good herbicidal effect)
phytotoxicity rating ECHCG ([4]; 0.400 kg/ha): 8 (8 - Approaching complete kill)
phytotoxicity rating ECHCG ([4]; 0.800 kg/ha): 9 (9 - Complete kill)
phytotoxicity rating SETVI ([5]; 0.100 kg/ha): 0 (0 - No effect)
phytotoxicity rating SETVI ([5]; 0.200 kg/ha): 3 (3 - Moderate effect)
phytotoxicity rating SETVI ([5]; 0.400 kg/ha): 7 (7 - Good herbicidal effect)
phytotoxicity rating SETVI ([5]; 0.800 kg/ha): 9 (9 - Complete kill)
phytotoxicity rating LOLPE ([6]; 0.100 kg/ha): 5 (5 - Definite injury)
phytotoxicity rating LOLPE ([6]; 0.200 kg/ha): 5 (5 - Definite injury)
phytotoxicity rating LOLPE ([6]; 0.400 kg/ha): 5 (5 - Definite injury)
phytotoxicity rating LOLPE ([6]; 0.800 kg/ha): 7 (7 - Good herbicidal effect)
phytotoxicity rating TRZAW ([7]; 0.100 kg/ha): 0 (0 - No effect)
phytotoxicity rating TRZAW ([7]; 0.200 kg/ha): 0 (0 - No effect)
phytotoxicity rating TRZAW ([7]; 0.400 kg/ha): 1 (1 - Trace effect)
phytotoxicity rating TRZAW ([7]; 0.800 kg/ha): 1 (1 - Trace effect)
phytotoxicity rating HORVW ([8]; 0.100 kg/ha): 0 (0 - No effect)
phytotoxicity rating HORVW ([8]; 0.200 kg/ha): 2 (2 - Slight effect)
phytotoxicity rating HORVW ([8]; 0.400 kg/ha): 3 (3 - Moderate effect)
phytotoxicity rating HORVW ([8]; 0.800 kg/ha): 4 (4 - Injury)
phytotoxicity rating ZEAMX ([9]; 0.100 kg/ha): 0 (0 - No effect)
phytotoxicity rating ZEAMX ([9]; 0.200 kg/ha): 0 (0 - No effect)
phytotoxicity rating ZEAMX ([9]; 0.400 kg/ha): 0 (0 - No effect)
phytotoxicity rating ZEAMX ([9]; 0.800 kg/ha): 6 (6 - Herbicidal effect)
phytotoxicity rating GLXMA ([10]; 0.100 kg/ha): 0 (0 - No effect)
phytotoxicity rating GLXMA ([10]; 0.200 kg/ha): 0 (0 - No effect)
phytotoxicity rating GLXMA ([10]; 0.400 kg/ha): 0 (0 - No effect)
phytotoxicity rating GLXMA ([10]; 0.800 kg/ha): 1 (1 - Trace effect)
phytotoxicity rating ORYSA ([11]; 0.100 kg/ha): 1 (1 - Trace effect)
phytotoxicity rating ORYSA ([11]; 0.200 kg/ha): 2 (2 - Slight effect)
phytotoxicity rating ORYSA ([11]; 0.400 kg/ha): 4 (4 - Injury)
phytotoxicity rating ORYSA ([11]; 0.800 kg/ha): 5 (5 - Definite injury)
phytotoxicity rating AMATA ([12]; 0.100 kg/ha): 0 (0 - No effect)
phytotoxicity rating AMATA ([12]; 0.200 kg/ha): 0 (0 - No effect)
phytotoxicity rating AMATA ([12]; 0.400 kg/ha): 3 (3 - Moderate effect)
phytotoxicity rating GALAP ([13]; 0.100 kg/ha): 0 (0 - No effect)
phytotoxicity rating GALAP ([13]; 0.200 kg/ha): 0 (0 - No effect)
phytotoxicity rating GALAP ([13]; 0.400 kg/ha): 4 (4 - Injury)
phytotoxicity rating ALOMY ([14]; 0.100 kg/ha): 0 (0 - No effect)
phytotoxicity rating ALOMY ([14]; 0.200 kg/ha): 2 (2 - Slight effect)
phytotoxicity rating ALOMY ([14]; 0.400 kg/ha): 7 (7 - Good herbicidal effect)
phytotoxicity rating APESV ([15]; 0.100 kg/ha): 0 (0 - No effect)
phytotoxicity rating APESV ([15]; 0.200 kg/ha): 0 (0 - No effect)
phytotoxicity rating APESV ([15]; 0.400 kg/ha): 1 (1 - Trace effect)
phytotoxicity rating ECHCG ([16]; 0.100 kg/ha): 0 (0 - No effect)
phytotoxicity rating ECHCG ([16]; 0.200 kg/ha): 0 (0 - No effect)
phytotoxicity rating ECHCG ([16]; 0.400 kg/ha): 0 (0 - No effect)
phytotoxicity rating SETVI ([17]; 0.100 kg/ha): 0 (0 - No effect)
phytotoxicity rating SETVI ([17]; 0.200 kg/ha): 0 (0 - No effect)
phytotoxicity rating SETVI ([17]; 0.400 kg/ha): 0 (0 - No effect)
phytotoxicity rating LOLPE ([18]; 0.100 kg/ha): 0 (0 - No effect)
phytotoxicity rating LOLPE ([18]; 0.200 kg/ha): 1 (1 - Trace effect)
phytotoxicity rating LOLPE ([18]; 0.400 kg/ha): 4 (4 - Injury)
phytotoxicity rating TRZAW ([19]; 0.100 kg/ha): 0 (0 - No effect)
phytotoxicity rating TRZAW ([19]; 0.200 kg/ha): 0 (0 - No effect)
phytotoxicity rating TRZAW ([19]; 0.400 kg/ha): 1 (1 - Trace effect)
phytotoxicity rating HORVW ([20]; 0.100 kg/ha): 0 (0 - No effect)
phytotoxicity rating HORVW ([20]; 0.200 kg/ha): 0 (0 - No effect)
phytotoxicity rating HORVW ([20]; 0.400 kg/ha): 0 (0 - No effect)
phytotoxicity rating ZEAMX ([21]; 0.100 kg/ha): 0 (0 - No effect)
phytotoxicity rating ZEAMX ([21]; 0.200 kg/ha): 0 (0 - No effect)
phytotoxicity rating ZEAMX ([21]; 0.400 kg/ha): 0 (0 - No effect)
phytotoxicity rating GLXMA ([22]; 0.100 kg/ha): 5 (5 - Definite injury)
phytotoxicity rating GLXMA ([22]; 0.200 kg/ha): 5 (5 - Definite injury)
phytotoxicity rating GLXMA ([22]; 0.400 kg/ha): 5 (5 - Definite injury)
phytotoxicity rating ORYSA ([23]; 0.100 kg/ha): 0 (0 - No effect)
phytotoxicity rating ORYSA ([23]; 0.200 kg/ha): 1 (1 - Trace effect)
phytotoxicity rating ORYSA ([23]; 0.400 kg/ha): 1 (1 - Trace effect)
